In article PMC8904451, “Novel chalcone-derived pyrazoles as potential therapeutic agents for the treatment of non-small cell lung cancer” (Scientific Reports, 2022):
Read-outs that look alike come from different tables or passages of the source.

Assays:
Type in all cases: cell-based, human
[1] = tested on: A-549 cells; assay: MTT cell viability assay, A-549; conditions: for IC50: Homo sapiens, A549
Procedure: All the synthesized chalcone-derived pyrazoles were evaluated for their antiproliferative activity against three human non-small cell lung cancer cell lines: A-549, H226, and H460, and a nonmalignant human embryonic kidney cell line HEK293. Cisplatin and 5-fluorouracil (5-FU) were used as a reference. […] The results of the studies are expressed as the IC50 concentration that inhibits 50% growth of cells. […] Following treatment with PCH-1, the viability of all the tested cancer cell lines decreased in a concentration-dependent manner.
The cell viability assay was performed for A-549, H226, H460, and HEK293 cells after treatment with the test compounds by using the 3-(4,5-dimethylthiazol-2-yl)-2,5-diphenyltetrazolium bromide (MTT, Sigma-Aldrich) assay. Briefly, cells were seeded onto 96-well culture plates for attachment. After 24 h, triplicate wells were treated with DMSO (1%) and the agents. […] After 2–4 h of incubation, the medium was removed, and the formazan crystals were dissolved in 100 μl of DMSO. The absorption was measured at 450 nm with an ASYS UVM340 microplate reader (Biochrom Ltd.). The 50% inhibitory concentration (IC50) was defined as the concentration that reduced the absorbance of the DMSO-treated wells by 50% of the vehicle. The IC50 values were generated from GraphPad Prism 9 software by plotting the survival curve as a function of dose from 3 independent experiments.

[2] = tested on: caspase-3/7 in H226 cells; assay: Caspase-3/7 activation by flow cytometry, H226; conditions: IC90
Procedure: (§1) To explain the type of cell death that cancer cells undergo after treatment with PCH-1, the ability of the compound to activate caspases 3–7 was determined by flow cytometry. […] The most pronounced activation of caspase 3 occurred equally in A-549 and H226 cell lines after 48 h of treatment and was sevenfold greater than that in the vehicle.
(§2) Cells were seeded onto tissue culture plates and allowed to attach for 24 h. Next, the cells were treated with PCH-1 or Etoposide at IC90 concentration for 6, 24, and 48 h. After incubation, the cells were harvested by trypsinization, rinsed twice with PBS, and stained with Annexin V Alexa Fluor™ 488 conjugate (Thermo Fisher, #A13201) for apoptosis assay and with CellEvent™ Caspase-3/7 Green Flow Cytometry Assay Kit (Thermo Fisher, #C10427) for caspase-3/7 activation according to the manufacturer’s protocols. The analysis was performed with Guava EasyCyte 8 cell sorter (Merck Millipore) and FlowJo software v10. Each experiment was repeated independently three times.

[3] = tested on: caspase-3/7 in A-549 cells; assay: Caspase-3/7 activation by flow cytometry, A-549; conditions: IC90
Procedure: as §1, §2

[4] = tested on: HEK293 cells; assay: MTT cell viability assay, HEK293; conditions: Homo sapiens, HEK293, 72 h, nonmalignant cells, read-out: IC50 ± SD, growth inhibition, HEK293
Procedure: All the synthesized chalcone-derived pyrazoles were evaluated for their antiproliferative activity against three human non-small cell lung cancer cell lines: A-549, H226, and H460, and a nonmalignant human embryonic kidney cell line HEK293. Cisplatin and 5-fluorouracil (5-FU) were used as a reference. Cells were exposed to a range of PCH concentrations (0.5–100 µM) for 72 h and analyzed by 3-(4,5-dimethylthiazol-2-yl)-2,5-diphenyl-2H-tetrazolium bromide (MTT) assay. The results of the studies are expressed as the IC50 concentration that inhibits 50% growth of cells. […] Following treatment with PCH-1, the viability of all the tested cancer cell lines decreased in a concentration-dependent manner.
The cell viability assay was performed for A-549, H226, H460, and HEK293 cells after treatment with the test compounds by using the 3-(4,5-dimethylthiazol-2-yl)-2,5-diphenyltetrazolium bromide (MTT, Sigma-Aldrich) assay. Briefly, cells were seeded onto 96-well culture plates for attachment. After 24 h, triplicate wells were treated with DMSO (1%) and the agents. After 72 h of incubation at 37 °C in 5% CO2, the MTT solution (0.4 mg/ml) was added to each well. After 2–4 h of incubation, the medium was removed, and the formazan crystals were dissolved in 100 μl of DMSO. The absorption was measured at 450 nm with an ASYS UVM340 microplate reader (Biochrom Ltd.). The 50% inhibitory concentration (IC50) was defined as the concentration that reduced the absorbance of the DMSO-treated wells by 50% of the vehicle. The IC50 values were generated from GraphPad Prism 9 software by plotting the survival curve as a function of dose from 3 independent experiments.

[5] = tested on: A-549 cells; assay: Intracellular ROS measurement (H2DCFDA, flow cytometry)
Excerpt: The generation of intracellular reactive oxygen species (ROS) causes an imbalance of cellular redox homeostasis, followed by damage of cellular components and cell death. Therefore, compounds with the ability to produce high levels of ROS and/or inhibit antioxidant processes are often used in anticancer therapies. In the present study, the effect of PCH-1 on ROS generation in A-549 cells was investigated by flow cytometry. As an indicator of ROS generation, the fluorescent probe 2ʹ,7ʹ-dichlorodihydrofluorescein diacetate (H2DCFDA) was used, which undergoes oxidation by ROS to form a highly fluorescent compound 2ʹ,7ʹ-dichlorofluorescein (DCF). As shown in Supplementary Fig. S6 in Supplementary Information, compound PCH-1 induced a massive amount of ROS in A-549 cells in a time-dependent manner. […] Moreover, the induction of ROS was equally high for PCH-1 and the reference compound H2O2 in all the tested time points.
For determination the ROS generation, cells were treated with IC90 of PCH-1, H2O2, or 1% DMSO for 3, 6, and 24 h. Next, a 1 µM CM-H2DCFDA (#C6827; Thermo-Fisher) probe was added to the cells in each plate 30 min before the end of the drug treatment. After incubation cells were collected by trypsinization, stained with 7-Aminoactinomycin D (7-AAD, Sigma-Aldrich), and measured. The analysis was performed with Guava EasyCyte 8 cell sorter (Merck Millipore) and FlowJo software v10. Each experiment was repeated independently three times.

IC50 ([1]; 72 h, MTT, read-out: IC50 ± SD, growth inhibition, A-549): 4.32 ± 0.28 µM
IC50 ([1]; A-549, 24 h, read-out: IC50 after 24 h of treatment): 41.3 ± 0.75 µM
IC50 ([1]; A-549, 48 h, read-out: IC50 after 48 h of treatment): 25.6 ± 0.97 µM
SMILES: COc1ccc(C2CC(c3cc4c(cc3OC)OCO4)=NN2C(C)=O)cc1 (centres unmarked) [PCH-1, 1-[3-(6-methoxy-2H-1,3-benzodioxol-5-yl)-5-(4-methoxyphenyl)-4,5-dihydro-1H-pyrazol-1-yl]ethan-1-one]
superior activity to the reference compound Cisplatin, A-549 ([1]; 72 h IC50 ratio): approximately 6.7 fold
caspase-3/7 activation, increase compared to control, H226 ([2]; 6 h): 2.9 fold
activation of caspase 3 vs vehicle, H226 ([2]; 48 h): sevenfold
cells with activated caspase 3/7 vs control, H226 ([2]; later exposure): > 4.7 times
caspase-3/7 activation, increase compared to control, A-549 ([3]; 6 h): 2.6 fold
activation of caspase 3 vs vehicle, A-549 ([3]; 48 h): sevenfold
cells with activated caspase 3/7 vs control, A-549 ([3]; later exposure): greater than 5.8 times
IC50 [4]: 20.9 ± 2.34 µM
increase of ROS towards vehicle control ([5]; A-549, IC90, 3 h): 15%
increase of ROS towards vehicle control ([5]; A-549, IC90, 6 h): 56.9%
increase of ROS towards vehicle control ([5]; A-549, IC90, 24 h): 68.1%
